{
  "source": "patent US20120201915A1",
  "about": "“THERAPEUTIC COMPOSITION” (priority 2009, published 2012)",
  "tested_on": "contact dermatitis from poison sumac",
  "test": "Case-study: contact dermatitis from poison sumac",
  "assay_type": "in vivo, human",
  "settings": "used by the patient before Composition I",
  "text": "In one case-study, a patient had contact dermatitis from poison sumac which was on the volar surfaces of both arms from the hand to the elbow. […] They continued application of the Composition I, TID (three daily doses), and by four days, their skin had healed.",
  "data": [
    {"smiles": "C[C@]12CCC(=O)C=C1CC[C@@H]1[C@@H]2C(=O)C[C@@]2(C)[C@H]1CC[C@]2(O)C(=O)CO", "note": "[cortisone]", "values": [
      {"measurement": "relief from earlier topical treatments", "value": "without relief"}
    ]}
  ]
}
